pEC50, pKd: −log10 of the molar value. Blank lines part the entries; values can stand above or below the compound they belong to. Active and inactive are the calls of the source. The rule behind the calls is not given here.
Experiments:
[1] = Solubility of the compound in DSF buffer in presence of 2% DMSO; type: physicochemical
[2] = Half life in Sprague-Dawley rat liver microsomes at 10 uM pretreated for 30 mins with NADPH regenerating system followed by incubation with microsomes for 60 mins by HPLC analysis; type: ADME, Microsome; settings: time 90 min
[3] = biological target: T1, Nuclear receptor subfamily 2 group E member 1 (Homo sapiens, UniProt Q9Y466); test: Agonist activity at human full length Gal4-fused TLX transfected in human HEK293T cells coexpressing pFR-TAE-Luc assessed as repressor activity of receptor by measuring decrease in reporter activity by dual-glo luciferase assay; type: cell-based
HEK-293T [4] = test: Cytotoxicity against human HEK293T cells assessed as reduction in cell viability incubated for 24 hrs by WST-1 assay; type: toxicity, cell-based
HEK-293T [5] = test: Effect on Gal4-VP16 plasmid transfected in human HEK293T cells assessed as reporter activity at 100 uM incubated for 14 hrs by luciferase assay; type: functional, cell-based
[6] = biological target: T1, Nuclear receptor subfamily 2 group E member 1; test: Agonist activity at TLX (unknown origin) assessed as induction of receptor oligomerization using sGFP-labeled TLX LBD as acceptor and biotin TLX LBD as donor measured after 20 hrs incubation at RT and 2 hrs at 37 degC by HTRF assay
[7] = biological target: T1, Nuclear receptor subfamily 2 group E member 1; test: Binding affinity to recombinant TLX LBD (unknown origin) by differential scanning fluorometry
[8] = biological target: T1, Nuclear receptor subfamily 2 group E member 1; test: Destabilization of recombinant TLX LBD (unknown origin) assessed as change in entropy at 100 uM by isothermal titration calorimetry; settings: filed as agonist
[9] = biological target: T1, Nuclear receptor subfamily 2 group E member 1; test: Agonist activity at TLX in human T98G cells assessed as upregulation of SIRT1 mRNA expression at 3 uM measured after 8 hrs by qRT-PCR analysis; type: cell-based; settings: filed as agonist
T98G [10] = test: Upregulation of TLX gene expression in human T98G cells at 3 uM measured after 8 hrs by qRT-PCR analysis; type: functional, cell-based
[11] = biological target: T1, Nuclear receptor subfamily 2 group E member 1; test: Destabilization of recombinant TLX LBD (unknown origin) assessed as change in enthalpy at 100 uM by isothermal titration calorimetry; settings: filed as agonist
[12] = biological target: T1, Nuclear receptor subfamily 2 group E member 1; test: Agonist activity at human Gal4-fused TLX LBD expressed in human HEK293T cells coexpressing Gal4-VP16 assessed as repressor activity of receptor by measuring decrease in reporter activity measured after 14 hrs by Dual-Glo Luciferase assay; type: cell-based
[13] = biological target: T1, Nuclear receptor subfamily 2 group E member 1; test: Agonist activity at human full length Gal4-fused TLX transfected in human HEK293T cells coexpressing pFR-TAE-Luc assessed as repressor activity of receptor by measuring decrease in reporter activity at 0.03 to 30 uM by dual-glo luciferase assay; type: cell-based; settings: dose 0.03-30 µM
HEK-293T [14] = test: Cytotoxicity against human HEK293T cells assessed as reduction in cell viability at >10 uM incubated for 24 hrs by WST-1 assay; type: toxicity, cell-based
[15] = biological target: T1, Nuclear receptor subfamily 2 group E member 1; test: Agonist activity at human Gal4-fused TLX LBD expressed in human HEK293T cells coexpressing Gal4-VP16 assessed as repressor activity of receptor by measuring decrease in reporter activity at 0.03 to 30 uM measured after 14 hrs by Dual-Glo Luciferase assay; type: cell-based; settings: filed as agonist, dose 0.03-30 µM
[16] = biological target: T1, Nuclear receptor subfamily 2 group E member 1; test: Agonist activity at TLX in human T98G cells assessed as upregulation of SIRT1 mRNA expression at 30 uM measured after 8 hrs by qRT-PCR analysis; type: cell-based; settings: filed as agonist
[17] = biological target: T1, Nuclear receptor subfamily 2 group E member 1; settings: filed as agonist, dose 100.0 µM
T98G [18] = test: Upregulation of TLX gene expression in human T98G cells at 30 uM measured after 8 hrs by qRT-PCR analysis; type: functional, cell-based
[19] = biological target: T1, Nuclear receptor subfamily 2 group E member 1; test: Agonist activity at human Gal4-fused TLX LBD expressed in human HEK293T cells coexpressing Gal4-VP16 assessed as repressor activity of receptor by measuring decrease in reporter activity at 30 uM measured after 14 hrs by Dual-Glo Luciferase assay; type: cell-based
HEK-293T [20] = test: Cytotoxicity against human HEK293T cells assessed as reduction in cell viability at >=10 uM incubated for 24 hrs by WST-1 assay; type: toxicity, cell-based
T98G [21] = test: Upregulation of TLX gene expression in human T98G cells at 10 uM measured after 8 hrs by qRT-PCR analysis; type: functional, cell-based
[22] = Drug degradation in Sprague-Dawley rat liver microsomes at 10 uM pretreated for 30 mins with NADPH regenerating system followed by incubation with microsomes for 30 mins by HPLC analysis; type: ADME, Microsome; settings: time 60 min, read-out: Drug degradation

T1 sequence (Q9Y466 whole entry, the tested form may be a part): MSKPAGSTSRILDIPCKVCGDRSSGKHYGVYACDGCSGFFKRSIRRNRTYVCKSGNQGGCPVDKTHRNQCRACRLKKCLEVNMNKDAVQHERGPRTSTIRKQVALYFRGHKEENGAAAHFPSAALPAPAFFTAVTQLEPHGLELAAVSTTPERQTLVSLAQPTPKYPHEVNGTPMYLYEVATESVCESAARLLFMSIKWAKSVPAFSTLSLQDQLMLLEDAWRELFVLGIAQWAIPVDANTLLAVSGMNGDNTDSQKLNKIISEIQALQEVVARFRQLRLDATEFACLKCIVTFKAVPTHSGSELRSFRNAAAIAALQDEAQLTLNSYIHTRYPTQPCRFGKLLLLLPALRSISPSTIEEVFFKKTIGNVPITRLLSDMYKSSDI

Structure (SMILES): CCCCOc1cc(C(=O)Nc2cc(-n3cnc(C)c3)cc(C(F)(F)F)c2)c2ccccc2n1
- solubility [1]: Soluble
- half-life at 10 µM [2]: 2.37 h
- pEC50 [3]: 6.15
- Activity (HEK-293T [4]): Non-Toxic
- Activity (HEK-293T [5]): inactive
- pEC50 [6]: 5.30
- pKd [7]: 5.80
- TdeltaS [8]: 123 kcal/mol
- Activity [9]: Active
- Activity (T98G [10]): inactive
- deltaH [11]: 114 kcal/mol
- pEC50 [12]: 6.60

Structure (SMILES): Cc1cn(-c2cc(N)cc(C(F)(F)F)c2)cn1
- solubility [1]: Soluble
- Activity (HEK-293T [5]): inactive
- Activity [16]: Active
- ΔTm [17]: -1.69 °C
- pEC50 [12]: 4.70
- Activity (T98G [18]): inactive

Structure (SMILES): COc1cc(N)c(Cl)cc1C(=O)Nc1cc(-n2cnc(C)c2)cc(C(F)(F)F)c1
- pEC50 [12]: 5.52

Structure (SMILES): CC(=O)Nc1cc(-n2cnc(C)c2)cc(C(F)(F)F)c1
- pEC50 [12]: 4.96

Structure (SMILES): Cc1cn(-c2cc(NC(=O)C(c3ccccc3)c3ccccc3)cc(C(F)(F)F)c2)cn1
- Activity (HEK-293T [20]): Toxic

The next lines start with results.

- solubility [1]: Soluble
- Activity [13]: inactive
- Activity [15]: Active
Structure (SMILES): CC1(C)CC=C(c2ccccc2)c2cc(/C=C/c3ccc(C(=O)O)cc3)ccc21
- Activity (HEK-293T [14]): Toxic

- Activity [19]: inactive
Structure (SMILES): Cc1cn(-c2cc(NC(=O)C3CCc4[nH]c5ccccc5c4C3)cc(C(F)(F)F)c2)cn1 (stereo not drawn)

- pEC50 [12]: 5.92
Structure (SMILES): Cc1cn(-c2cc(NC(=O)CCCc3ccc(-c4ccccc4)cc3)cc(C(F)(F)F)c2)cn1

- Activity [19]: inactive
Structure (SMILES): Cc1cn(-c2cc(NC(=O)COc3cccc4ccccc34)cc(C(F)(F)F)c2)cn1

- metabolised at 1 h, 10 µM [22]: 100%
- ΔTm [17]: -1.08 °C
Structure (SMILES): Cc1cc(C(=O)N2CCN(C(c3ccccc3)c3ccccc3)CC2)nn1C
- Activity (HEK-293T [4]): Non-Toxic
- Activity (T98G [21]): inactive

- pEC50 [12]: 5.30
Structure (SMILES): Cc1cn(-c2cc(NC(=O)N3CCN(c4ccc(O)cc4)CC3)cc(C(F)(F)F)c2)cn1

— ChEMBL document CHEMBL5042518, “Design of a Potent TLX Agonist by Rational Fragment Fusion” (J Med Chem, 2022)
